Blank lines part the entries; values can stand above or below the molecule they belong to.
Test: solvent given as SMILES

SMILES: Cc1c(C2=[N+]3C(=Cc4c(C)c5ccccc5n4[B-]3(F)F)c3ccccc32)[nH]c2ccccc12
- absorption maximum (in C1CCOC1): 608 nm
- absorption maximum (in CC#N): 591 nm
- absorption maximum (in CCCCCC): 623 nm
- absorption maximum (in CO): 598 nm
- absorption maximum (in Cc1ccccc1): 625 nm
- absorption maximum (in ClCCl): 611 nm

SMILES: CN(C)c1cc(F)c(C(=O)c2cc(F)c(N(C)C)cc2F)cc1F
- absorption maximum (in CCO): 358 nm

SMILES: CN(C)c1ccc(/C=C2\CC/C(=C\c3ccc(C#N)cc3)C2=O)cc1
- absorption maximum (in C1CCOC1): 458 nm
- absorption maximum (in CC#N): 456 nm
- absorption maximum (in CC(C)=O): 454 nm
- absorption maximum (in CC(C)O): 471 nm
- absorption maximum (in CCCCO): 473 nm
- absorption maximum (in CCCCOC(C)=O): 442 nm
- absorption maximum (in CCCO): 473 nm
- absorption maximum (in CCO): 472 nm
- absorption maximum (in CCOC(=O)c1ccccc1): 459 nm
- absorption maximum (in CCOC(C)=O): 446 nm
- absorption maximum (in CCOCC): 438 nm
- absorption maximum (in CN(C)C=O): 464 nm
- absorption maximum (in CO): 473 nm
- absorption maximum (in CS(C)=O): 471 nm
- absorption maximum (in Cc1ccccc1): 455 nm
- absorption maximum (in ClC(Cl)(Cl)Cl): 446 nm
- absorption maximum (in ClC(Cl)Cl): 469 nm
- absorption maximum (in ClCCl): 464 nm
- absorption maximum (in Clc1ccccc1Cl): 465 nm
- absorption maximum (in O=C1CCCC1): 460 nm
- absorption maximum (in S=C=S): 464 nm
- absorption maximum (in c1ccccc1): 457 nm
- absorption maximum (in c1ccncc1): 467 nm

SMILES: CN1CCN(CCCN2c3ccccc3Sc3ccc(C(F)(F)F)cc32)CC1
- absorption maximum (in CC#N): 310 nm
- absorption maximum (in CO): 310 nm
- absorption maximum (in O): 308 nm

SMILES: Cc1cc(C)c(B(c2ccc(-n3c4ccccc4c4ccccc43)cc2)c2c(C)cc(C)cc2C)c(C)c1
- absorption maximum (in Cc1ccccc1): 360 nm

SMILES: CC(C)(C)c1ccc(Oc2cc3c4c(cc(Oc5ccc(C(C)(C)C)cc5)c5c6c(Oc7ccc(C(C)(C)C)cc7)cc7c8c(cc(Oc9ccc(C(C)(C)C)cc9)c(c2c45)c86)C(=O)OC7=O)C(=O)OC3=O)cc1
- absorption maximum (in ClC(Cl)Cl): 581 nm

SMILES: Nc1nc2ccc([N+](=O)[O-])cc2s1
- absorption maximum (in CC#N): 355 nm
- absorption maximum (in ClCCl): 346 nm

SMILES: Cc1c2ccncc2c(C)c2c1[nH]c1ccccc12
- absorption maximum (in C1CCCCC1): 290 nm
- absorption maximum (in C1CCOC1): 293.3 nm
- absorption maximum (in C1COCCO1): 292.5 nm
- absorption maximum (in CC#N): 291.5 nm
- absorption maximum (in CC(C)(C)O): 294.5 nm
- absorption maximum (in CC(C)O): 294.5 nm
- absorption maximum (in CCC(C)(C)O): 294.5 nm
- absorption maximum (in CCCCCC): 289.5 nm
- absorption maximum (in CCCCO): 295 nm
- absorption maximum (in CCO): 294 nm
- absorption maximum (in CCOC(C)=O): 291.5 nm
- absorption maximum (in CCOCC): 291.5 nm
- absorption maximum (in CN(C)C=O): 293.5 nm
- absorption maximum (in CO): 294 nm
- absorption maximum (in CS(C)=O): 295 nm
- absorption maximum (in Cc1ccccc1): 293 nm

SMILES: CCCCCCCCCCCCCCCCN(CCCCCCCCCCCCCCCC)c1ccc(/C=C/c2cc[n+](Cc3cc(C[n+]4ccc(/C=C/c5ccc(N(CCCCCCCCCCCCCCCC)CCCCCCCCCCCCCCCC)cc5)cc4)cc(C[n+]4ccc(/C=C/c5ccc(N(CCCCCCCCCCCCCCCC)CCCCCCCCCCCCCCCC)cc5)cc4)c3)cc2)cc1
- absorption maximum (in C1COCCO1): 482 nm
- absorption maximum (in CC(C)O): 506 nm
- absorption maximum (in CCCCCC): 481 nm
- absorption maximum (in CCCCCCCCO): 498 nm
- absorption maximum (in CCCCO): 507 nm
- absorption maximum (in CCCO): 508 nm
- absorption maximum (in CCO): 508 nm
- absorption maximum (in CO): 509 nm
- absorption maximum (in CS(C)=O): 486 nm
- absorption maximum (in Cc1ccc(C)cc1): 483 nm
- absorption maximum (in Cc1ccccc1): 483 nm
- absorption maximum (in ClC(Cl)Cl): 514 nm
- absorption maximum (in ClCCl): 516 nm
- absorption maximum (in c1ccccc1): 484 nm

SMILES: COCCC1=Cc2nc1ccc1[nH]c(cc1CCOC)c1nc(c(NC(C)=O)cc3[nH]c2cc3CCOC)C(CCOC)=C1
- absorption maximum (in Cc1ccccc1): 670 nm

SMILES: CCCCN(CCCC)c1ccc(/C=C/c2ccc3nc(/C=C/c4nc5ccc(/C=C/c6ccc(N(CCCC)CCCC)cc6)cc5n(CCC)c4=O)c(=O)n(CCC)c3c2)cc1
- absorption maximum (in C1COCCO1): 528 nm
- absorption maximum (in ClCCl): 549 nm

SMILES: O=c1oc2ccccc2c2cc(N3c4ccccc4Oc4ccccc43)ccc12
- absorption maximum (in Cc1ccccc1): 395 nm

SMILES: CC(C)[Si](C#Cc1cc2c3c(c1)c(=C(c1ccccc1)c1ccccc1)c1cc(C#C[Si](C(C)C)(C(C)C)C(C)C)cc4c1N3c1c(cc(C#C[Si](C(C)C)(C(C)C)C(C)C)cc1c4=C(c1ccccc1)c1ccccc1)c2=C(c1ccccc1)c1ccccc1)(C(C)C)C(C)C
- absorption maximum (in ClCCl): 404 nm

SMILES: CN(C)c1ccc(C#Cc2cc(C#Cc3ccc(N(C)C)cc3)c3ccc4c(C#Cc5ccc(N(C)C)cc5)cc(C#Cc5ccc(N(C)C)cc5)c5ccc2c3c54)cc1
- absorption maximum (in ClCCl): 508 nm

SMILES: COC(=O)c1cc(=O)n(C)c2cc(-c3cc(OC)c(OC)c(OC)c3)sc12
- absorption maximum (in CC#N): 398 nm
- absorption maximum (in ClCCl): 400 nm

SMILES: Nc1nc2c(ncn2[C@H]2C[C@H](O)[C@@H](CO)O2)c(=O)[nH]1
- absorption maximum (in O): 274 nm

SMILES: COc1ccc(-c2csc(/C(C#N)=C/c3ccc(C#N)cc3)n2)cc1
- absorption maximum (in CC#N): 389 nm
- absorption maximum (in CCO): 395 nm
- absorption maximum (in CN(C)C=O): 395 nm
- absorption maximum (in Cc1ccccc1): 400 nm
- absorption maximum (in ClCCl): 396 nm

SMILES: c1ccc(-c2c3c(c(-c4ccccc4)c4cc5ccccc5cc24)Cc2c(c(-c4ccccc4)c4cc5ccccc5cc4c2-c2ccccc2)C3)cc1
- absorption maximum (in CC#N): 389 nm
- absorption maximum (in CCCCCC): 388 nm
- absorption maximum (in CO): 388 nm
- absorption maximum (in Cc1ccccc1): 391 nm
- absorption maximum (in ClCCl): 392 nm

SMILES: Cc1ccc(-c2cc(-c3ccccc3)c(C#N)c(=S)[nH]2)cc1
- absorption maximum (in C1CCCCC1): 488 nm
- absorption maximum (in C1COCCO1): 442 nm
- absorption maximum (in CC#N): 430 nm
- absorption maximum (in CCOCC): 440 nm
- absorption maximum (in CN(C)C=O): 438 nm
- absorption maximum (in ClC(Cl)(Cl)Cl): 446 nm

SMILES: CCCCC(CC)CN1C(=O)c2cc(Oc3ccc(C(C)(C)C)cc3)c3c4c(Cl)cc5c6c(cc(Cl)c(c7c(Oc8ccc(C(C)(C)C)cc8)cc(c2c37)C1=O)c64)C(=O)N(c1c(C(C)C)cccc1C(C)C)C5=O (configuration not stated)
- absorption maximum (in Cc1ccccc1): 560 nm

SMILES: Cc1ccc2c(c1)C(C)(C)c1cc(C)ccc1N2c1ccc2c(c1)C(C)(C)c1cc(N3c4ccc(C)cc4C(C)(C)c4cc(C)ccc43)ccc1S2(=O)=O
- absorption maximum (in ClCCl): 370 nm

SMILES: CCCCCC(=O)c1c2c(c(C(=O)CCCCC)c3c1OC1(CCCC1)O3)OC1(CCCC1)O2
- absorption maximum (in CC#N): 444 nm
- absorption maximum (in CCCCCC): 435 nm
- absorption maximum (in CCO): 452 nm
- absorption maximum (in CO): 452 nm
- absorption maximum (in ClCCl): 449 nm

SMILES: N#Cc1nnn(-c2ccnc3cc(Cl)ccc23)c1N
- absorption maximum (in C1CCCCC1): 326.01 nm
- absorption maximum (in C1CCOC1): 364.05 nm
- absorption maximum (in C1COCCO1): 365.68 nm
- absorption maximum (in CC#N): 381.45 nm
- absorption maximum (in CCOC(C)=O): 364.01 nm
- absorption maximum (in CN(C)C=O): 376.7 nm
- absorption maximum (in CO): 386.62 nm
- absorption maximum (in CS(C)=O): 368.79 nm
- absorption maximum (in ClC(Cl)Cl): 385 nm

Second part, led by results:

- absorption maximum (in CC#N): 402 nm
- absorption maximum (in ClCCl): 406 nm
SMILES: COC(=O)c1cc(=O)n(C)c2cc(-c3ccccc3N(C)C)sc12

- absorption maximum (in C1CCOC1): 340 nm
SMILES: COc1ccc(-c2cc3ccccc3p2-c2ccccc2)cc1 (configuration not stated)

- absorption maximum (in ClC(Cl)Cl): 401 nm
SMILES: CO[Si](c1c2ccccc2cc2ccccc12)(c1c2ccccc2cc2ccccc12)c1c2ccccc2cc2ccccc12

- absorption maximum (in ClCCl): 386 nm
SMILES: N#Cc1cc(/C=C/c2ccc(N(c3ccccc3)c3ccccc3)cc2)ccc1-c1ccc(/C=C/c2ccc(N(c3ccccc3)c3ccccc3)cc2)cc1C#N

- absorption maximum (in CC1CCCCC1): 446 nm
SMILES: CC(C)(C)c1cc2c3cc(C(C)(C)C)c(-c4cc5cc6c7cccc8cccc(c9cc(C(C)(C)C)cc(c5cc4C(C)(C)C)c96)c87)cc3cc3c4cccc5cccc(c(c1)c23)c54

- absorption maximum (in C1CCOC1): 565 nm
SMILES: CC1=CS[C@]2(C)C1=C1C(=C3C(C)=C(c4ccc(-c5nc(-c6ccccc6)c(-c6ccccc6)[nH]5)cc4)S[C@]32C)C(F)(F)C(F)(F)C1(F)F

- absorption maximum (in ClC(Cl)Cl): 421 nm
SMILES: CCCCCCN1C(=O)C(c2ccc(-n3c4ccccc4c4ccccc43)cc2)=C(c2ccc(-n3c4ccccc4c4ccccc43)cc2)C1=O
- absorption maximum (in c1ccc2c(c1)c1ccccc1n2-c1ccc(-c2ccc(-n3c4ccccc4c4ccccc43)cc2)cc1): 426 nm

- absorption maximum (in C1CCCCC1): 350 nm
SMILES: CCCC1(CCC)c2cc(-c3ccc(OC)cc3)ccc2-c2ccc(-c3ccc4c(c3)C(CCC)(CCC)c3cc(-c5ccc(OC)cc5)ccc3-4)cc21

- absorption maximum (in CC1CCCO1): 305 nm
SMILES: c1ccc2c(c1)-c1ccccc1C21c2ccccc2-c2cnccc21

- absorption maximum (in CCO): 349 nm
SMILES: CCOC(=O)c1cc(C(=O)O)nc2cc(OC)ccc12

- absorption maximum (in ClCCl): 402 nm
SMILES: CCCCC(CC)COc1ccc2nc(-c3ccc(-c4ccc(N(C)C)cc4)s3)sc2c1 (configuration not stated)

- absorption maximum (in CS(C)=O): 556 nm
SMILES: C[N+]1=C(/C=C/C=C2/N(CCC[N+](C)(C)C)c3ccc(S(=O)(=O)[O-])cc3C2(C)C)C(C)(C)c2ccccc21

- absorption maximum (in CO): 785 nm
SMILES: CC1(C)C(/C=C/C2=C(Cl)C(=C/C=C3/N(Cc4ccc([N+](=O)[O-])cc4)c4ccccc4C3(C)C)/CCC2)=[N+](Cc2ccc([N+](=O)[O-])cc2)c2ccccc21

- absorption maximum (in ClCCl): 630 nm
SMILES: CC(C)CCCC(C)CCN1C(=O)c2ccc3c(-c4ccccc4)c4c5ccc6c7c(ccc(c(-c8ccccc8)c4c4ccc(c2c34)C1=O)c75)C(=O)N(CCC(C)CCCC(C)C)C6=O (configuration not stated)

- absorption maximum (in CCCCCC): 542 nm
SMILES: CC(C)[Si](C#Cc1c2cc3ccccc3cc2c(C#C[Si](C(C)C)(C(C)C)C(C)C)c2nc3c(nc12)C1c2ccccc2C3c2ccccc21)(C(C)C)C(C)C

- absorption maximum (in CCCCCC): 570 nm
- absorption maximum (in ClCCl): 570 nm
SMILES: CC(C)[Si](C#Cc1c2ccccc2c(C#C[Si](C(C)C)(C(C)C)C(C)C)c2nc3ccccc3nc12)(C(C)C)C(C)C

- absorption maximum (in ClC(Cl)Cl): 400 nm
SMILES: F[B-]1(F)OC(c2ccccc2)=Cc2c3ccccc3cc[n+]21

- absorption maximum (in CS(C)=O): 376 nm
SMILES: Cc1ccc(N/C=C/C=[NH+]c2ccc(C)cc2)cc1

- absorption maximum (in ClC(Cl)Cl): 598 nm
SMILES: Clc1cc(Cl)c([C](c2c(Cl)cc(Cl)cc2Cl)c2c(Cl)cc(-n3c4ccccc4c4ccccc43)cc2Cl)c(Cl)c1

- absorption maximum (in ClCCl): 436 nm
SMILES: CC(C)(C)c1ccc(-c2ccc(-c3ccc(N(c4ccccc4)c4ccccc4)cc3)c3nsnc23)cc1

- absorption maximum (in CO): 402 nm
SMILES: COc1ccc(-c2cc(B(c3c(C)cc(C)cc3C)c3c(C)cc(C)cc3C)c(-c3sc(-c4ccc(OC)cc4)cc3P(=O)(c3ccccc3)c3ccccc3)s2)cc1
